Measurements taken from article PMC9198986, “Controlling Doxorubicin Release from a Peptide Hydrogel through Fine-Tuning of Drug–Peptide Fiber Interactions” (Biomacromolecules, 2022).
Where no end group is shown, it is not given here.

Key:
[1] = Gels biodegradability: fraction of intact peptide after incubation in 50% FBS (RP-HPLC); assay type: in vitro ADME, bovine; details: 14 mM hydrogel, 37 °C; for susceptibility to enzymatic degradation, rank: up to 72 h; for level of degradation up to 12 h: first 12 h
Protocol: Peptide hydrogels (14 mM) were incubated in either PBS or 50% FBS ddH2O solution at 37 °C. At selected time points (2, 5, 10, 24, 48, and 72 h), the gels were disassembled by dilution to 1 mg mL^–1 in a 1% trifluoroacetic acid (TFA) water/acetonitrile (50/50 v/v) solution. Reversed phase-high-performance liquid chromatography (RP-HPLC) analyses were conducted at 25 °C on an Ultimate 3000 HPLC system (Dionex) equipped with a variable wavelength UV detector (wavelength used 210 nm) and a gradient pump. Separation was performed on a Phenomenex Jupiter 4μ Proteo column 90A° (250 × 4.66 mm) fitted with a 300 Guard Cartridge (4.3 × 10 mm). A flow rate of 1 mL min^–1 was used for all separations. The mobile phase consisted of a mixture of water: TFA(0.1%)—solvent A and acetonitrile/TFA(0.1%)—solvent B. An elution gradient of 90% solvent A/10% solvent B to 30% solvent A/70% solvent B over 45 min was used. 100 μL of sample aliquots was injected into the column using an ACC-3000 autosampler. Data were analyzed using Chromoleon 6.80 software. The peptide stability was expressed as a fraction of intact peptide present in the sample at sampling time t using the following equation [drawing 1] 1 where AUCPBS (t) and AUCFBS (t) are the intact peptide peak areas under the HPLC curves obtained at the sampling time t for hydrogels incubated with PBS and 50% FBS ddH2O solutions, respectively.
We also examined the susceptibility of these peptide hydrogels to enzymatic degradation by incubating them in a 50 FBS/50 PBS media mixture. At the selected time points, the samples were homogenized (release buffer + remaining hydrogel), and the fraction of intact, that is, nondegraded peptide was estimated via HPLC. FBS contains a wide array of proteases and other enzymes that will degrade proteins and peptides. […] Dox release was also measured using a 50 FBS/50 PBS mixture as release media. […] From 24 h onward, similar release profiles were obtained in the presence and absence of FBS, probably due to the fact that by then most of the Dox has been released, and the supernatant release media is reaching saturation (Figure S5).

3T3 murine fibroblasts = test: 3T3 fibroblast viability under hydrogel inserts (PicoGreen dsDNA); assay type: cell-based, mouse; details: non-loaded 14 mM hydrogel in insert above 3T3 cells; for cell viability with non-loaded hydrogels: over 48 h, PicoGreen dsDNA
Protocol: 3T3 murine fibroblasts were seeded (1.5 × 10^4 cells cm^–2) in 12-well cell culture plates and 1.5 mL of DMEM supplemented with 10% FBS added per well. 400 μl of hydrogels (14 mM) with and without Dox (240 μM) were plated within 12-well cell culture plate inserts (ThinCert, Greiner Bio-One, pore size 1 μm) and placed above the cells. At selected time points, cells were retrieved from the cell culture wells, and the amount of double-stranded DNA (dsDNA) content was measured using PicoGreen dsDNA assay (Life Technologies, Carlsbad, CA, USA) following the manufacturer’s protocol.
Finally, we confirmed that the Dox released from the hydrogels was still active by investigating its effect on 3T3 mouse fibroblasts. This was achieved by culturing the fibroblasts in 2D in cell culture wells and placing the hydrogels (loaded and non-loaded with Dox) in inserts equipped with porous membranes above the cells (see schematics in Figure 6). This experimental setup was used to avoid a direct contact between the hydrogels and the cells but still allow the drug to diffuse from the hydrogels into the cell culture media. Dox is known to affect cell proliferation and viability via DNA intercalation and inhibition of topoisomerase II.[24],[25] Therefore, at the selected time points, the effect of Dox on fibroblasts viability was evaluated by measuring the total amount of double-stranded DNA (dsDNA), which is directly proportional to the number of live cells present.

level of degradation ([1]; RP-HPLC)	susceptibility to enzymatic degradation, rank ([1]; RP-HPLC)	hydrogel degradation at later times ([1]; >24 h, RP-HPLC)	level of degradation up to 12 h ([1]; RP-HPLC)	peptide degraded ([1]; after 5 h, RP-HPLC UV 210 nm, intact peak area vs PBS incubation) [%]	Sequence	cell viability with non-loaded hydrogels (3T3 murine fibroblasts)	dsDNA detected after 48 h as % of the amount at t = 0 (3T3 murine fibroblasts; DMEM 10% FBS, 48 h, PicoGreen) [%]
–	most susceptible	–	–	~40	KFEFKFEFKK [KF8K]	good cell viabilities	–
–	–	–	low level of degradation	–	FKFEFKFK [FK]	some level of cytotoxicity	40

More lines, now with the values behind:

Sequence	level of degradation ([1]; RP-HPLC)	susceptibility to enzymatic degradation, rank ([1]; RP-HPLC)	hydrogel degradation at later times ([1]; >24 h, RP-HPLC)	level of degradation up to 12 h ([1]; RP-HPLC)	peptide degraded ([1]; after 5 h, RP-HPLC UV 210 nm, intact peak area vs PBS incubation) [%]	cell viability with non-loaded hydrogels (3T3 murine fibroblasts)	dsDNA detected after 48 h as % of the amount at t = 0 (3T3 murine fibroblasts; DMEM 10% FBS, 48 h, PicoGreen) [%]
FEFKFEFKK [F8K]	minimal degradation	least susceptible	–	–	–	good cell viabilities	–
FEFEFKFE [FE]	–	–	more substantial	low levels of degradation	–	good cell viabilities	–
FEFKFEFK [F8]	minimal degradation	–	–	–	–	good cell viabilities	–
